According to US7977317B2, “Compositions and methods for modulating blood-brain barrier transport” (Raptor Pharmaceutical Inc., priority 2001, dated 2011):

Legend:
[1] = tested on: bovine brain capillary endothelial cell monolayers; assay: Competition of [125I]-p97 binding on bovine brain capillary endothelial cell monolayers; settings: [125I]-p97 25 nM, 2 h at 4° C., competitor 7.5 micromolar (FIG. 3)
Protocol: FIG. 3. Binding of p97 on bovine brain capillary endothelial cell monolayers. Binding p97 was performed with BBCECs that were pre-incubated 2 hrs in Ringer-Hepes to avoid any interference from the astrocytes. For the binding experiments, cells were incubated for 2 h at 4° C. in Ringer/Hepes in the presence of [^125I]-p97 (25 nM) and 7.5 micromolar concentrations of cold-p97, transferrin or lactoferrin, respectively. At the end of the incubation, the filters were gently washed at 4° C. three times with 4 ml of cold-PBS. Then the associated radioactivity of endothelial cells was determined by removing the membrane of the culture insert and counting it in a gamma counter.
B. Binding studies of p97. Binding of p97 was performed with BBCECs and Rat Brain Endothelial Cells that were pre-incubated 2 hrs in Ringer/Hepes to avoid any interference from the astrocytes.
For the binding experiments, cells were incubated for 2 h at 4° C. in Ringer/Hepes in the presence of [^125I]-p97 (25 nM) and increasing concentrations of cold-p97 or high (7.5 micromolar) concentrations of transferrin or lactoferrin. At the end of the incubation, the filters were gently washed at 4° C. three times with 4 ml of cold-PBS. Then the associated radioactivity of endothelial cells was determined by removing the membrane of the culture insert and counting it in a gamma counter.

[2] = tested on: human brain capillaries; assay: Accumulation/uptake of [125I]-p97 in isolated human brain capillaries; type: binding
Protocol: FIG. 5. Accumulation of p97 in human brain capillaries. Accumulation of [^125I]-p97 was measured at 37° C. for 1 h in isolated human brain capillaries (100 μg/assay). The incubation medium contained [^125I]-p97 and a final concentration of 100 nM p97 in Ringer/Hepes solution. The accumulation of [^125I]-p97 was performed in the presence or absence of 5 μm cold-p97, holo-transferrin or lactoferrin. […] The suspension was filtered under vacuum through a […] pore size Millipore filter. The filter was rinsed with 8 ml of stop solution, and the radioactivity was counted. Nonspecific binding of the radioactivity to the capillaries was determined by the addition of the ice-cold stop solution to the capillaries before adding the incubation medium. This value was subtracted from accumulation values obtained following an 1 h incubation. The results were expressed as ng of [^125I]-p97 accumulated per μg of brain capillaries.
FIG. 16 illustrates the identification of a p97 receptor according to ligand specificity. FIG. 16a, Uptake of [^125I]-p97 into human brain capillaries. The uptake of [^125I]-p97 at 100 nM (control) into isolated human brain capillaries was measured for 1 h at 37° C. in the presence of a 50-fold molar excess of unlabelled p97, human holo-transferrin or human lactoferrin. (*[…] Student's t-test (n=5); FIG. 16b, Effect of RAP on [^125I]-p97 transcytosis across BBCEC monolayers. Apical-to-basal transport of [^125I]-p97 was measured in the presence (closed circles) or absence (open circles) of RAP (25 μg/ml) (n=5); FIG. 16c, Inhibition of bovine [^125I]-lactoferrin transport by p97. Transcytosis of bovine [^125I]-lactoferrin (50 nM) was measured in the presence (closed circles) or absence (open circles) of unlabelled p97 (5 μM) at 37° C. (n=3).
A. Isolation of human brain capillaries. Capillaries of the blood-brain barrier were isolated from human brain cortex by a procedure previously described by Dallaire, et al., J. Biol. Chem., 267:22323-22327 (1992) with slight modifications. Human brains were obtained post-mortem. The brain was cleared of meninges, superficial large blood vessels and choroid plexus. All the following procedures were performed at 4° C. The cerebral cortex was homogenized in 5 volumes of Ringer/Hepes solution with a Polytron (Brinkman Instruments, Rexdale, Ontario, Canada). The homogenate was mixed with an equal volume of Dextran T-70 (27 g in 100 ml of Ringer/Hepes). The suspension was centrifuged at 25,000 g for 10 min. The pellet was resuspended in 30 ml of Ringer/Hepes and passed through a 250 μm nylon mesh screen. […]
B. p97 accumulation in human brain capillaries. […] Accumulation of [^125I]-p97 was measured at 37° C. for 1 h in isolated human brain capillaries (100 μg/assay). […]

Inhibition of [125I]-p97 binding/accumulation in human brain capillaries ([2]; competitor 5 micromolar, 100 nM p97, 1 h at 37° C. (FIG. 5)): no significant competition | Competition with p97 for receptor binding in human brain capillaries, repeat experiment ([2]; performed identically to FIG. 5 (FIG. 6)): not
Substance: transferrin: transferrin (Tf), iron-binding serum protein used as comparator and competitor
Inhibition of [125I]-p97 binding to BBCECs [1]: did not block or reduce
